For 13 compounds, IC50 results are on record in patent publication US11180474B2 (BRISTOL-MYERS SQUIBB COMPANY, priority 2016, dated 2021).

One experiment addresses T1, human TLR7 (Homo sapiens, UniProt Q9NYK1).
T1 construct: host or cells: HEK-Blue cells
T1 sequence (Q9NYK1 27-1049): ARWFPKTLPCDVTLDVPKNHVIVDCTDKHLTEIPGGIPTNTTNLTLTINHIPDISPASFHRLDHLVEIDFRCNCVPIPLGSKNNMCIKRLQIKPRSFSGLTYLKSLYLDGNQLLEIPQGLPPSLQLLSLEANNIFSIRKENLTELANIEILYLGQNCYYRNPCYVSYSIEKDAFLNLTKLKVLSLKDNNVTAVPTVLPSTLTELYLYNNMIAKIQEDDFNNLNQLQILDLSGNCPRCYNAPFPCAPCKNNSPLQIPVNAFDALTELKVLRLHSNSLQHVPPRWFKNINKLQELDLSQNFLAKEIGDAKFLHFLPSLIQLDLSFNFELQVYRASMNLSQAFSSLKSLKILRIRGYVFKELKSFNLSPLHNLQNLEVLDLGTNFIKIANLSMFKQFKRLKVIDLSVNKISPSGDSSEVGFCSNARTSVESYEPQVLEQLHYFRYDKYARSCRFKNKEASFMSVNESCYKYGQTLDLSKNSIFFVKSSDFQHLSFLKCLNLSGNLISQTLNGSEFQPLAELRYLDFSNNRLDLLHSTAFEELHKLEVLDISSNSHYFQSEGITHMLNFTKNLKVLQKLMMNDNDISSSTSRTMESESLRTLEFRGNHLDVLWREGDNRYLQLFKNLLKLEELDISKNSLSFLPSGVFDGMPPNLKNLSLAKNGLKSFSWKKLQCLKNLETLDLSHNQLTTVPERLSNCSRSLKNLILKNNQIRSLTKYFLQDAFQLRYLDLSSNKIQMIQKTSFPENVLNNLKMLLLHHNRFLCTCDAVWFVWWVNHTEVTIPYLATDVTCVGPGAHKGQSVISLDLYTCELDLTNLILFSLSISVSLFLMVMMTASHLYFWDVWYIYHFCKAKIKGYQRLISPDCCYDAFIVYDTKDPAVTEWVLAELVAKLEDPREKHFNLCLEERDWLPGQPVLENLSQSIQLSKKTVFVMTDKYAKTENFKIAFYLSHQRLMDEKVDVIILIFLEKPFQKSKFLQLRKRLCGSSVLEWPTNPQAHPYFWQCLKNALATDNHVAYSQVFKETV
The experiment is described as follows: TLR7 inhibition reporter assay (HEK-Blue cells, SEAP reporter, gardiquimod stimulation). Type of experiment: cell-based. The note with it: HEK-Blue cells overexpressing human TLR7, gardiquimod 7.5 μM. As for the experimental part:
(§1) TLR7/8/9 Inhibition Reporter Assays
Briefly, cells are seeded into Greiner 384 well plates (15000 cells per well for TLR7, 20,000 for TLR8 and 25,000 for TLR9) and then treated with test compounds in DMSO to yield a final dose response concentration range of 0.05 nM-50 μM. […] After a 22 hour incubation at 37° C., 5% CO2, SEAP levels are determined with the addition of HEK-Blue™ Detection reagent (Invivogen), a cell culture medium that allows for detection of SEAP, according to manufacturer's specifications. The percent inhibition is determined as the % reduction in the HEK-Blue signal present in wells treated with agonist plus DMSO alone compared to wells treated with a known inhibitor.

In a further experiment the target is T2, human TLR9 (Homo sapiens, UniProt Q9NR96).
T2 construct: host or cells: HEK-Blue cells
T2 sequence (Q9NR96 26-1032): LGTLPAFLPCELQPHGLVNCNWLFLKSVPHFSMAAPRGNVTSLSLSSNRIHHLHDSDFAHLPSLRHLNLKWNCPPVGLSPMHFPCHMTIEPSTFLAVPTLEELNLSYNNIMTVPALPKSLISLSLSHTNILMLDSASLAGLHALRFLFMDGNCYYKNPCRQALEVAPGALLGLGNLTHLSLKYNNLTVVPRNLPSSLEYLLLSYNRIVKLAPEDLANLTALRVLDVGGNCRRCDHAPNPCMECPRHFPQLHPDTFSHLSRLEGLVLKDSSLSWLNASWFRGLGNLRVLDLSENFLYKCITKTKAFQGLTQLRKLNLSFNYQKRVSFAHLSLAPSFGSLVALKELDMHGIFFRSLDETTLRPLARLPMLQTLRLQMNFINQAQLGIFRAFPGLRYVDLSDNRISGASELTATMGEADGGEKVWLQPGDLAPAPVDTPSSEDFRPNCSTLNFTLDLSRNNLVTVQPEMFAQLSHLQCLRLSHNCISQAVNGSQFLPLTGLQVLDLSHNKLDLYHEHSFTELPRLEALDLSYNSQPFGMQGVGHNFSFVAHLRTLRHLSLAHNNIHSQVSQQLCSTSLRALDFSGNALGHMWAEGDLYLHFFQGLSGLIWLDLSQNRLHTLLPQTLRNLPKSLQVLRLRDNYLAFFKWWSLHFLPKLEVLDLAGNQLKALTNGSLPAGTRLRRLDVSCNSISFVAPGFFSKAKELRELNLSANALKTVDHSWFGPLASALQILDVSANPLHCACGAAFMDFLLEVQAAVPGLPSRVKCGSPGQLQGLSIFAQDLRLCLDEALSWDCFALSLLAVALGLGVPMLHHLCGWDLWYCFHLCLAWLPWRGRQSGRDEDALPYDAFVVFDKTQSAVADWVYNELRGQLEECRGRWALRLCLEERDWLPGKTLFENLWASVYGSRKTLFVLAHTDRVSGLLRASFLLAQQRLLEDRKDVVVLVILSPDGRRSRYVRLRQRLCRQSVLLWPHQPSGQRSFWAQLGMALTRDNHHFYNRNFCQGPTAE
The experiment is described as follows: TLR9 inhibition reporter assay (HEK-Blue cells, SEAP reporter, ODN2006 stimulation). It is filed as cell-based. The note with it: HEK-Blue cells overexpressing human TLR9, ODN2006 5 nM. As for the experimental part: as §1
HEK-Blue™-cells (Invivogen) overexpressing human TLR7, TLR8 or TLR9 receptors were used for screening inhibitors of these receptors using an inducible SEAP (secreted embryonic alkaline phosphatase) reporter gene under the control of the IFN-β minimal promoter fused to five NF-κB and AP-1-binding sites. Briefly, cells are seeded into Greiner 384 well plates (15000 cells per well for TLR7, 20,000 for TLR8 and 25,000 for TLR9) and then treated with test compounds in DMSO to yield a final dose response concentration range of 0.05 nM-50 μM. After a 30 minute compound pre-treatment at room temperature, the cells are then stimulated with a TLR7 ligand (gardiquimod at a final concentration of 7.5 μM), TLR8 ligand (R848 at a final concentration of 15.9 μM) or TLR9 ligand (ODN2006 at a final concentration of 5 nM) to activate NF-κB and AP-1 which induce the production of SEAP. After a 22 hour incubation at 37° C., 5% CO2, SEAP levels are determined with the addition of HEK-Blue™ Detection reagent (Invivogen), a cell culture medium that allows for detection of SEAP, according to manufacturer's specifications. The percent inhibition is determined as the % reduction in the HEK-Blue signal present in wells treated with agonist plus DMSO alone compared to wells treated with a known inhibitor.

The structures appear in SMILES notation.

As for `CCC(C)CN1CCC(N2CCC(c3ccc4[nH]c(-c5ccc(OC)c(OC)c5)c(C)c4c3)CC2)CC1` (centres unmarked) [Example 51, 2-(3,4-dimethoxyphenyl)-3-methyl-5-(1′-(2-methylbutyl)-[1,4′-bipiperidin]-4-yl)-1H-indole], the figures for the IC50 at human TLR7 and at human TLR9 were 0.24 µM and 0.089 µM, respectively.

In the case of `COc1ccc(-c2[nH]c3ccc(C4CCN(C5CCN(CCCSC)CC5)CC4)cc3c2C)cc1OC` [Example 53, 2-(3,4-dimethoxyphenyl)-3-methyl-5-(1′-(3-(methylthio)propyl)-[1,4′-bipiperidin]-4-yl)-1H-indole], the values for the IC50 at human TLR7 and at human TLR9 were 0.188 µM and 0.116 µM, respectively.

Take `CCC(CC)CN1CCC(N2CCC(c3ccc4[nH]c(-c5ccc(OC)c(OC)c5)c(C)c4c3)CC2)CC1` [Example 54, 2-(3,4-dimethoxyphenyl)-5-(1′-(2-ethylbutyl)-[1,4′-bipiperidin]-4-yl)-3-methyl-1H-indole]: the IC50 at human TLR7 came to 0.595 µM; against human TLR9 it was 0.238 µM.

Consider `COc1ccc(-c2[nH]c3ccc(C4CCN(C5CCN(CCC(C)O)CC5)CC4)cc3c2C)cc1OC` (centres unmarked) [Example 56, 4-(4-(2-(3,4-dimethoxyphenyl)-3-methyl-1H-indol-5-yl)-[1,4′-bipiperidin]-1′-yl)butan-2-ol], for which the IC50 stood at 0.409 µM against human TLR7 and 0.217 µM against human TLR9.

Turning to `CCOC(=O)C1CC1CN1CCC(N2CCC(c3ccc4[nH]c(-c5ccc(OC)c(OC)c5)c(C)c4c3)CC2)CC1` (centres unmarked) [Example 60, ethyl 2-((4-(2-(3,4-dimethoxyphenyl)-3-methyl-1H-indol-5-yl)-[1,4′-bipiperidin]-1′-yl)methyl)cyclopropane-1-carboxylate], the IC50 at human TLR7 came out at 0.27 µM; against human TLR9, 0.111 µM.

In the case of `COc1ccc(-c2[nH]c3ccc(C4CCN(C5CCN(C6CCC6)CC5)CC4)cc3c2C)cc1OC` [Example 61, 5-(1′-cyclobutyl-[1,4′-bipiperidin]-4-yl)-2-(3,4-dimethoxyphenyl)-3-methyl-1H-indole], the IC50 on human TLR7 amounted to 1.59 µM; against human TLR9, 0.555 µM.

Regarding `CCCN1CCC(N2CCC(c3ccc4[nH]c(-c5ccc(OC)c(OC)c5)c(C)c4c3)CC2)CC1` [Example 63, 2-(3,4-dimethoxyphenyl)-3-methyl-5-(1′-propyl-[1,4′-bipiperidin]-4-yl)-1H-indole], the IC50 against human TLR7 stood at 0.321 µM; at human TLR9 it was 0.132 µM.

As to `COc1ccc(-c2[nH]c3ccc(C4CCN(C5CCN(C6CCCC(C)C6)CC5)CC4)cc3c2C)cc1OC` (centres unmarked) [Example 67, 2-(3,4-dimethoxyphenyl)-3-methyl-5-(1′-(3-methylcyclohexyl)-[1,4′-bipiperidin]-4-yl)-1H-indole], the IC50 against human TLR7 was found to be 1.95 µM; at human TLR9, 0.07 µM.

For `COc1ccc(-c2[nH]c3ccc(C4CCN(C5CCN(CCCC(=O)O)CC5)CC4)cc3c2C)cc1OC` [Example 70, 4-(4-(2-(3,4-dimethoxyphenyl)-3-methyl-1H-indol-5-yl)-[1,4′-bipiperidin]-1′-yl)butanoic acid], the values for the IC50 against human TLR7 and at human TLR9 were 3.75 µM and 2.28 µM, respectively.

As to `CCC(C)N1CCC(N2CCC(c3ccc4[nH]c(-c5ccc(OC)c(OC)c5)c(C)c4c3)CC2)CC1` (centres unmarked) [Example 71, 5-(1′-(sec-butyl)-[1,4′-bipiperidin]-4-yl)-2-(3,4-dimethoxyphenyl)-3-methyl-1H-indole], the results for the IC50 against human TLR7 and against human TLR9 were 0.537 µM and 0.097 µM, respectively.

With `COc1ccc(-c2[nH]c3ccc(C4CCN(C5CCN(C6CCCC(C(F)(F)F)C6)CC5)CC4)cc3c2C)cc1OC` (centres unmarked) [Example 73], the IC50 against human TLR7 was determined as 5.09 µM; against human TLR9 it was 0.1 µM.

`COc1ccc(-c2[nH]c3ccc(C4CCN(C5CCN(CCC(C)C)CC5)CC4)cc3c2C)cc1OC` [Example 77, 2-(3,4-dimethoxyphenyl)-5-(1′-isopentyl-[1,4′-bipiperidin]-4-yl)-3-methyl-1H-indole]: the results for the half-inhibitory concentration (IC50) against human TLR7 and against human TLR9 were 0.522 µM and 0.218 µM, respectively.

`COc1ccc(-c2[nH]c3ccc(C4CCN(C5CCN(C6CCCC(C(F)(F)F)C6)CC5)CC4)cc3c2C)cc1OC` (centres unmarked) [Example 79]: the IC50 against human TLR7 came to 2.32 µM; on human TLR9 it was 0.122 µM.
